Columns and labels:
Assay in all cases: relative viability (nuclei count vs DMSO), 5 days (fraction); higher = more cells survive
[1] = compound: COc1cc(N2CCC(N3CCN(C)CC3)CC2)ccc1Nc1ncc(Cl)c(Nc2ccccc2S(=O)(=O)C(C)C)n1 [NVP-TAE684] + Cc1nc(Nc2ncc(C(=O)Nc3c(C)cccc3Cl)s2)cc(N2CCN(CCO)CC2)n1 [Dasatinib] (partner 0.075 µM)
Summary of the method: (§1)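 Lung cancer cell lines in 1536-well plates were dosed by pin tool the day after seeding, either with one drug alone or with a fixed anchor-drug dose plus five library-drug doses (not always all listed) in √10 steps. After 5 days, cells were fixed and their nuclei stained in one step (final 0.05% Triton X-100, 1% formaldehyde, 1 ug/ml Hoechst), then counted on 4× images. Relative viability is the nuclei count in treated wells divided by that in vehicle wells. Values are medians of duplicate plates.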

[2] = compound: C1=CC=C2C(=C1)N=C(S2)C(C#N)C3=NC(=NC=C3)NCCC4=CN=CC=C4 + CC(=O)c1c(C)c2cnc(Nc3ccc(N4CCNCC4)cn3)nc2n(C2CCCC2)c1=O [Palbociclib] (partner 0.5 µM)
Summary of the method: as §1

[3] = compound: COc1cc2/c(=N/c3ccc(Br)cc3F)nc[nH]c2cc1OCC1CCN(C)CC1 [Vandetanib] + COc1cc2c(Oc3ccc(NC(=O)C4(C(=O)Nc5ccc(F)cc5)CC4)cc3F)ccnc2cc1OCCCN1CCOCC1 [Foretinib] (partner 0.25 µM)
Summary of the method: as §1

[4] = compound: COc1cc(N2CCC(N3CCN(C)CC3)CC2)ccc1Nc1ncc(Cl)c(Nc2ccccc2S(=O)(=O)C(C)C)n1 [NVP-TAE684] + CC(C)C[C@H](NC(=O)[C@H](Cc1ccccc1)NC(=O)c1cnccn1)B(O)O [Bortezomib] (partner 0.002 µM)
Summary of the method: as §1

Cell Line | relative viability ([1]; first compound 0.2 µM) | relative viability ([1]; first compound 0.6325 µM) | relative viability ([1]; first compound 2 µM) | relative viability ([2]; first compound 0.005 µM) | relative viability ([2]; first compound 0.01581 µM) | relative viability ([2]; first compound 0.05 µM) | relative viability ([2]; first compound 0.1581 µM) | relative viability ([2]; first compound 0.5 µM) | relative viability ([3]; first compound 0.02 µM) | relative viability ([3]; first compound 0.06325 µM) | relative viability ([3]; first compound 0.2 µM) | relative viability ([3]; first compound 0.6325 µM) | relative viability ([3]; first compound 2 µM) | relative viability ([4]; first compound 0.2 µM) | relative viability ([4]; first compound 0.6325 µM) | relative viability ([4]; first compound 2 µM)
LCLC-97TM1 | 0.894 | 0.792 | 0.275 | 0.236 | 0.265 | 0.235 | 0.251 | 0.19 | 1 | 0.904 | 0.997 | 0.942 | 0.868 | 0.711 | 0.216 | 0.194
EPLC-272H | 0.181 | 0.186 | 0.0612 | 0.358 | 0.32 | 0.317 | 0.284 | 0.304 | 0.592 |  | 0.708 | 0.708 | 0.474 | 1.23 |  | 0.66
CAL-12T | 0.227 | 0.111 | 0.0731 | 0.422 | 0.327 | 0.429 | 0.673 | 0.41 | 1.13 | 1.05 | 0.217 | 1.31 | 0.552 | 0.974 | 0.645 | 0.366
NCI-H1755 | 0.333 | 0.276 | 0.0732 | 0.431 | 0.44 | 0.481 | 0.5 | 0.644 | 0.9 | 0.884 | 0.9 | 0.956 | 0.868 |  | 0.949 | 0.838
H3255 | 0.318 | 0.274 | 0.23 | 0.367 | 0.309 | 0.303 | 0.327 | 0.305 | 0.904 | 0.824 | 0.858 | 0.689 | 0.345 | 0.766 | 0.618 | 0.746
NCI-H441 | 0.461 | 0.398 | 0.216 | 0.231 | 0.184 | 0.232 | 0.241 | 0.187 | 1.05 | 0.816 | 0.264 | 0.978 | 1.01 | 0.516 | 0.358 | 0.204
SW 1573 | 0.236 | 0.227 | 0.0788 | 0.306 | 0.325 | 0.389 | 0.478 | 0.299 | 0.965 | 0.946 | 0.81 | 0.91 | 0.951 | 1.02 |  | 0.927
HCC-78 | 0.298 | 0.24 | 0.306 | 0.333 | 0.431 | 0.506 | 0.485 | 0.478 | 0.546 | 0.606 | 0.524 | 0.57 | 0.432 | 0.428 | 0.381 | 0.307
NCI-H2023 | 0.393 | 0.254 | 0.114 | 0.328 | 0.309 | 0.394 | 0.383 | 0.332 | 0.852 | 0.824 | 0.0955 | 0.591 | 0.431 |  | 0.944 | 0.268
ChaGo-K-1 | 0.715 | 0.558 | 0.413 | 0.731 | 0.979 | 0.903 | 1.01 | 0.911 | 0.958 | 0.962 | 0.939 | 0.936 | 0.905 | 1.18 | 0.691 | 0.952
NCI-H2126 | 0.568 | 0.39 | 0.375 | 0.299 | 0.363 | 0.365 | 0.347 | 0.354 | 1.17 | 1.16 | 1.11 | 1.14 | 1.11 | 1.09 | 1.07 | 0.958
RERF-LC-KJ | 0.667 | 0.596 | 0.327 | 0.977 | 1.13 | 1.05 | 1.12 | 1.01 | 0.875 | 0.951 | 0.904 | 0.882 | 0.937 | 0.952 | 1.25 | 0.916
NCI-H3122 | 0.239 | 0.119 | 0.0896 | 0.162 | 0.208 | 0.199 | 0.184 | 0.178 | 0.984 | 0.972 | 0.888 | 0.944 | 0.94 | 0.763 | 0.218 | 0.162
NCI-H322M | 0.241 | 0.223 | 0.246 | 0.427 | 0.501 | 0.484 | 0.476 | 0.488 | 0.983 | 0.889 | 0.959 | 0.841 | 0.674 | 1.23 | 1.16 | 0.924
NCI-H647 | 0.0949 | 0.103 | 0.0648 | 0.376 | 0.407 | 0.372 | 0.378 | 0.442 | 1.17 | 1.2 | 0.259 | 1.35 | 1.21 | 1.38 | 1.11 | 0.77
EMC-BAC-2 | 0.291 | 0.292 | 0.199 | 0.461 | 0.533 | 0.487 | 0.555 | 0.486 | 0.996 | 0.934 | 0.307 | 0.965 | 0.958 |  | 1.01 | 0.734
PC-14 | 0.242 | 0.11 | 0.0369 | 0.34 | 0.479 | 0.515 | 0.559 | 0.441 | 0.955 | 0.916 | 0.959 | 0.447 | 0.196 |  | 0.928 | 0.964
201T | 0.703 | 0.46 | 0.314 | 0.292 | 0.354 | 0.354 | 0.383 | 0.325 | 1.08 | 0.996 | 1.06 | 1.15 | 1 | 1.11 | 1.01 | 1.11
LXF-289 | 0.191 | 0.141 | 0.111 | 0.46 | 0.6 | 0.612 | 0.625 | 0.503 | 1.01 | 0.954 | 0.978 | 0.968 | 0.937 | 1.06 | 1.03 | 1.02
